# Source: patent US12295997B2, “Prostate neoantigens and their uses” (Janssen Biotech, Inc., priority 2020, dated 2025)
# Tested on: CD8+ and CD4+ T cells (autologous CD3+ Pan-T cells isolated from human normal PBMCs)
# Test: Exogenous autologous normal donor restimulation assay (15-mer overlapping peptide pools on CD1c+ dendritic cells, TNFα/IFNγ flow cytometry)
# Assay type: cell-based
# Details: 15-mer overlapping peptide pool; for Maximum Fold Change Over Background CD4+ cells / Maximum Fold Change Over Background CD8+ cells / Maximum Frequency of TNFα/IFNγ Double Positive CD4+ T cells / Maximum Frequency of TNFα/IFNγ Double Positive CD8+ T cells: Table 25; for Maximum Fold Change Over Background CD4+ cells: TNFα+IFNγ+ CD4+ T cells; for Maximum Fold Change Over Background CD4+ cells / Maximum Fold Change Over Background CD8+ cells: highest fold change over negative control across normal donors; for Maximum Fold Change Over Background CD8+ cells: TNFα+IFNγ+ CD8+ T cells; for Maximum Frequency of TNFα/IFNγ Double Positive CD4+ T cells / Maximum Frequency of TNFα/IFNγ Double Positive CD8+ T cells: highest frequency across normal donors; for Max. Fold Change over background CD4+ TNFαINFγ double positive DP / Max. Fold Change over background CD8+ TNFαINFγ double positive DP / Max. Frequency of CD4+ TNFαINFγ DP / Max. Frequency of CD8+ TNFαINFγ DP: Table 28, additional neoantigens, highest across normal donors
# Protocol: CD1c+ Dendritic Cells (DC) isolated from human normal PBMCs were thawed using media (IMDM (Gibco) supplemented with glutamine, HEPES, 5% human serum (Sigma), and 1× Pen-Strep). DC cells were resuspended in media supplemented with IL-4 (Peprotech, 80 ng/mL) and GM-CSF (Gibco, 80 ng/mL), plated in 6 well microplates, and rested overnight at 37° C. (5% CO2). The following day, DC cells were counted and plated in a 96 well round bottom microplate at a concentration of 30,000 viable cells per well. Lyophilized peptides (15-mer overlapping peptides) were solubilized in 100% DMSO and pooled by neoantigen to between 5 mg/mL and 20 mg/mL. Neoantigen peptides pools were added to DCs for a final concentration of […] and rested for 2 hours at 37° C. (5% CO2). CEF Peptide Pool “Plus” (Cellular Technologies, Ltd.) was utilized as a positive control and DMSO at the same final concentration as the experimental peptides was utilized as a negative control. After 2 hours, DC cells were irradiated with 50 gray of ionizing radiation. Autologous CD3+ Pan-T cells isolated from human normal PBMCs were thawed using media. Following irradiation, autologous Pan-T cells were added to the irradiated DCs at 300,000 viable cells per well. Human IL-15 (Peprotech) was added to all wells at final concentration of 10 ng/mL.
# Plates were incubated at 37° C. (5% CO2) for a total of 12 days. Media was refreshed every 2-3 days with IL-15 (10 ng/mL final concentration) and IL-2 (R&D systems, 10 IU/mL final concentration). On day 11 cells were re-stimulated with identical experimental peptide pools or controls, at same concentration as peptide stimulation on Day 1. Protein Inhibitor Cocktail (eBioscience) was added to every well and plate was incubated overnight at 37° C. (5% CO2).
# On day 12, cells were stained for intracellular flow cytometry analysis. The cells were washed with PBS and stained with Live/Dead Fixable Aqua Dead Cell stain (Thermo-Fisher). Following the live/dead stain, cells were blocked using Biotin-Free Fc Receptor Blocker (Accurate Chemical & Scientific Corp). Extracellular cellular flow panel (1 μL/antibody per well in 50 μL) consisted of CD3 PerCP-Cy5.5 (Biolegend), CD4 BV421 (Biolegend), and CD8 APC-Cy7 (Biolegend). After extracellular staining, cells were fixed using Foxp3/fTranscription Factor Staining Buffer Set (eBioscience) and stained for intracellular proteins (1:50 dilution) using TNFα FITC (R&D Systems) and IFNγ BV785 (Biolegend). Cells were washed and resuspended in stain buffer and analyzed using a BD Celesta flow cytometer.
# Flow cytometry cell staining analysis was completed using FlowJo v10. Cells were gated on live, singlet, CD3+ cells. The CD8+ and CD4+ T cells were analyzed for TNFα/IFNγ expression and the frequency of double positive TNFα/IFNγ CD8+ and the frequency of double positive TNFα/IFNγ CD4+ T cells were recorded. Responses were assessed to be positive when the frequency of double positive TNFα/IFNγ CD8+ or TNFα/IFNγ CD4+ T cells due to stimulation with an experimental peptide pool was increased greater than or equal to 3-fold over the DMSO only negative control for that donor and at least 0.01%.
# (§1) Overlapping 15-mer peptides were designed to span each neoantigen incorporated into NeoGAd20 and NeoMVA to assess their ability to activate T cells using the exogenous autologous normal donor restimulation assay described in Example 1 as pools using TNFα and IFNγ production by CD8^+ and CD4^+ T cells as a readout.
# as §1, with “Immunogenicity of various additional identified neoantigens was assessed. Overlapping” for “Overlapping”, “similarly to what was done in Example 11” for “incorporated into NeoGAd20 and NeoMVA”
Substance,Maximum Fold Change Over Background CD4+ cells,Maximum Fold Change Over Background CD8+ cells,Maximum Frequency of TNFα/IFNγ Double Positive CD4+ T cells,Maximum Frequency of TNFα/IFNγ Double Positive CD8+ T cells,Max. Fold Change over background CD4+ TNFαINFγ double positive DP,Max. Fold Change over background CD8+ TNFαINFγ double positive DP,Max. Frequency of CD4+ TNFαINFγ DP,Max. Frequency of CD8+ TNFαINFγ DP
"GNTTLQQLGEASQAPSGSLIPLRLPLLWEVRG (listed as Homo sapiens) [AS16, LRRC45 alternative splicing]",7.78,24.17,0.140,0.290,–,–,–,–
"KIQNKNCPD (listed as Homo sapiens) [AS23, ZNF614 alternative splicing]",5.08,3.24,0.01,0.07,–,–,–,–
"VAMMVPDRQVHYDFGL (listed as Homo sapiens) [AS3, DNAH8 alternative splicing]",3.86,7.92,0.054,0.095,–,–,–,–
"IIDSDKIMAVCMGCLLTRHVQCQAMEMQQ (listed as Homo sapiens) [AS54, ABCC4 alternative splicing]",–,–,–,–,17.87,88.15,0.18,8.33
P27 (LHPQRETFTPRWSGANYWKLAFPVGAEGTFPAAATQRGVVRPA; listed as Homo sapiens) [Neoantigen P27],–,–,–,–,45.38,7.87,0.05,0.59
"CGASACDVSLIAMDSA (listed as Homo sapiens) [FUS1, SLC45A3->ELK4 gene fusion]",8.33,1.94,0.100,0.031,–,–,–,–
MS9 (SALSGNSWV; listed as Homo sapiens),–,–,–,–,455.63,1.38,1.72,0.1
"KVLNEIDAVVTVPPSLSTSQIPQGCCIIL (listed as Homo sapiens) [AS20, PFKFB4 alternative splicing]",–,–,–,–,1.36,3.81,0.05,0.12
"HVVGYGHLDTSGSSSSSSWP (listed as Homo sapiens) [FUS15, D2HGDH->GAL3ST2 gene fusion]",2.79,1.75,0.039,0.028,–,–,–,–
"VVGRRHETAPQPLLVPDRAGGEGGA (listed as Homo sapiens) [AS5, DHDH alternative splicing]",–,–,–,–,8.71,2.13,0.1,0.16
"KMHFSLKEHPPPPCPP (listed as Homo sapiens) [FUS19, GTF2F1->PSPN gene fusion]",3.15,1.88,0.013,0.030,–,–,–,–
"DLRRVATYCAPLPSSWRPGTGTTIPPRMRSC (listed as Homo sapiens) [FUS23, NUDT14->JAG2 gene fusion]",–,–,–,–,12.77,11.05,0.12,0.62
"RLTQRLVQGWTPMENRWCGRRAGGQPASSSTRWTTCRAACLLTKWTAGRSQTSIG (listed as Homo sapiens) [AS49, PDF alternative splicing]",–,–,–,–,184.87,8.67,0.14,0.65
MS7 (KKDLELIL; listed as Homo sapiens),–,–,–,–,10.52,6.67,0.09,0.12
"QQLRIFCAAMASNEDFS (listed as Homo sapiens) [FUS11, MBTPS2->YY2 gene fusion]",–,–,–,–,28.57,2.63,0.16,0.1
TMPAILKLQKNCLLSL (listed as Homo sapiens) [MS8],15.60,4.44,0.40,0.14,–,–,–,–
MS4 (SYFSLTNIFNFV; listed as Homo sapiens),–,–,–,–,367.35,24.13,2.43,0.76
MS10 (TVRAILL; listed as Homo sapiens),–,–,–,–,74.17,3.42,0.28,0.13
"TEISCCTLSSEENEYLPRPEWQLQ (listed as Homo sapiens) [FUS3, MSMB->NCOA4 gene fusion]",2.75,3.94,0.033,0.063,–,–,–,–
"LVLGVLSGHSGSRL (listed as Homo sapiens) [AS8, CACNA1D alternative splicing]",4.08,54.55,0.049,0.600,–,–,–,–
"LELELSEGVCFRLR (listed as Homo sapiens) [FUS10, DIP2A->DIP2A-IT1 gene fusion]",–,–,–,–,10.86,2.42,0.04,0.09
"GLNLNTDRPGGYSYSIWWKNNAKNR (listed as Homo sapiens) [AS17, MPHOSPH9 alternative splicing]",–,–,–,–,3.18,2.38,0.01,0.07
"KENDVREVCDVYLQMQIFFHFKFRSYFH (listed as Homo sapiens) [AS10, CHRNA5 alternative splicing]",–,–,–,–,3.97,4.33,0.23,0.08
"FVQGKDWGLKKFIRRDF (listed as Homo sapiens) [Neoantigen M10, SPOP F133L]",14.14,1.89,0.1,0.09,–,–,–,–
